In publication PMC8955712, “Rapid Mining of Novel α-Glucosidase and Lipase Inhibitors from Streptomyces sp. HO1518 Using UPLC-QTOF-MS/MS” (Marine Drugs, 2022):
Like-named read-outs stand apart in the source and are kept apart here.

Assays:
Type in all cases: biochemical
[1] = biological target: T1, Porcine pancreatic α-amylase (PPA) (Sus scrofa, UniProt P00690); test: PPA inhibition assay; conditions: for IC50: read-out: IC50 Values Against PPA
T1 construct: purchased Sigma Aldrich Co. (St Louis, MO, USA)
T1 sequence (P00690 16-511): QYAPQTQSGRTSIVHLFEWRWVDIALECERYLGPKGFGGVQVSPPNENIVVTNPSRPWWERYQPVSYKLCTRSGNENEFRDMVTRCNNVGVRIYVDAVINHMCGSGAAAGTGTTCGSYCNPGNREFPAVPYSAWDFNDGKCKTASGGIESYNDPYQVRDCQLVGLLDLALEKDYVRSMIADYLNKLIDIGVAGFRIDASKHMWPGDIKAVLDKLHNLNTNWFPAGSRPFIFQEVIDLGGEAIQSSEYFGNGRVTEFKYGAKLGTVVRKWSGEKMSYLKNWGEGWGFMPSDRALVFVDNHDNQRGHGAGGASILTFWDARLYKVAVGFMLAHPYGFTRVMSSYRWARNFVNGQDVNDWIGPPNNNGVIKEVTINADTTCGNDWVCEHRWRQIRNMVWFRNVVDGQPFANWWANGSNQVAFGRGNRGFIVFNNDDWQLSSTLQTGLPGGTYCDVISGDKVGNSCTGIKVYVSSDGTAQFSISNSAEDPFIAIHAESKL
Description: (§1) The HPLC-grade methanol and acetonitrile were purchased from CINC High Purity Solvents (Shanghai) Co., Ltd. (Shanghai, China). The other solvents were of analytical grade (Sinopharm Chemical Reagent Co., Ltd., Beijing, China). Porcine pancreatic α-amylase (PPA) and PL were purchased from Sigma Aldrich Co. (St Louis, MO, USA). […] Standards 1–9 were previously isolated from Streptomyces sp. HO1518 by our group.

sucrase = test: Sucrase inhibition assay; conditions: mean ± SD; acarbose positive control; read-out: IC50 Values Against Sucrase
Description: The HPLC-grade methanol and acetonitrile were purchased from CINC High Purity Solvents (Shanghai) Co., Ltd. (Shanghai, China). The other solvents were of analytical grade (Sinopharm Chemical Reagent Co., Ltd., Beijing, China). Porcine pancreatic α-amylase (PPA) and PL were purchased from Sigma Aldrich Co. (St Louis, MO, USA). Sucrase and acarbose were obtained from Shanghai yuanye Bio-Technology Co., Ltd. (Shanghai, China). Orlistat was bought from Shanghai xushuo Bio-Technology Co., Ltd. (Shanghai, China). Standards 1–9 were previously isolated from Streptomyces sp. HO1518 by our group.
The sucrase inhibition assay of compounds 9–20 was evaluated according to the previously reported method.

pancreatic lipase (PL) = biological target: T2, pancreatic lipase (PL) (Sus scrofa, UniProt P00591); test: PL (lipase) inhibition assay; conditions: read-out: IC50 Values Against PL
T2 construct: purchased Sigma Aldrich Co. (St Louis, MO, USA)
T2 sequence (P00591 1-450): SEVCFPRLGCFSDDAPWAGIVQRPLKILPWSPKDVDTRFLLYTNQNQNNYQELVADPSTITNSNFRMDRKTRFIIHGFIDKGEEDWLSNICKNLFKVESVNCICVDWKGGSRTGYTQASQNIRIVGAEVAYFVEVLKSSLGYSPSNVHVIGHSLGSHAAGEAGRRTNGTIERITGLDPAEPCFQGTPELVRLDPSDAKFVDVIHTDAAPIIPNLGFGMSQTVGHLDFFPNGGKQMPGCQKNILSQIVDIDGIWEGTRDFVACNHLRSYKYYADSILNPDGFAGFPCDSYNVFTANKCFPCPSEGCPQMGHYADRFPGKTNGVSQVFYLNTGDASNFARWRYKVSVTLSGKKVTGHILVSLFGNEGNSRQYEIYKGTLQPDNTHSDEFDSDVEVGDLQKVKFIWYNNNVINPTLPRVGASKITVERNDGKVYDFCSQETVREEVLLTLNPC
Description: as §1

[2] = mean ± SD, acarbose positive control
[3] = mean ± SD, orlistat positive control

Structure (SMILES) | fold more effective than acarbose (α-amylase inhibition) ([1]; ratio of PPA IC50 values, acarbose vs compound) | IC50 [1] | IC50 (sucrase) | IC50 (pancreatic lipase (PL)) | IC50 [1, 2] | IC50 (pancreatic lipase (PL); [3])
CC1OC(OC2C(CO)OC(OC3C(CO)=CC(NC4C(C)OC(OC5C(CO)OC(OC6C(CO)OC(OC7C(CO)OC(OC8C(CO)OC(O)C(O)C8O)C(O)C7O)C(O)C6O)C(O)C5O)C(O)C4O)C(O)C3O)C(O)C2O)C(O)C(O)C1NC1C=C(CO)C(O)C(O)C1O (stereo not drawn) [Compound 9, acarviostatin II03] | 282 fold | 30 ± 1 nM | 17.2 ± 0.76 µM | 7.64 ± 0.13 µM | – | –
C[C@H]1O[C@H](O[C@H]2[C@H](O)[C@@H](O)[C@@H](O[C@H]3[C@H](O)[C@@H](O)[C@@H](O[C@H]4[C@H](O)[C@@H](O)C(O)O[C@@H]4CO)O[C@@H]3CO)O[C@@H]2CO)[C@H](O)[C@@H](O)[C@@H]1N[C@H]1C=C(CO)[C@@H](O[C@H]2O[C@H](CO)[C@@H](O[C@H]3O[C@H](C)[C@@H](N[C@H]4C=C(CO)[C@@H](O)[C@H](O)[C@H]4O)[C@H](O)[C@H]3O)[C@H](O)[C@H]2O)[C@H](O)[C@H]1O (stereo partly drawn) [Compound 10, Acarviostatin II02] | – | 84 ± 1 nM | 13.1 ± 0.55 µM | 12.7 ± 0.76 µM | – | –
CCC(=O)OC[C@H]1O[C@H](O[C@H]2[C@H](O)[C@@H](O)[C@@H](O[C@H]3[C@H](O)[C@@H](O)C(O)O[C@@H]3CO)O[C@@H]2CO)[C@H](O)[C@@H](O)[C@@H]1O[C@H]1O[C@H](C)[C@@H](N[C@H]2C=C(CO)[C@@H](O[C@H]3O[C@H](CO)[C@@H](O[C@H]4O[C@H](C)[C@@H](N[C@H]5C=C(CO)[C@@H](O)[C@H](O)[C@H]5O)[C@H](O)[C@H]4O)[C@H](O)[C@H]3O)[C@H](O)[C@H]2O)[C@H](O)[C@H]1O (stereo partly drawn) [Compound 11, D6-O-Propionyl-acarviostatin II02] | – | 79 ± 1 nM | 4.34 ± 0.24 µM | 7.22 ± 0.1 µM | – | –
CC(C)C(=O)OC[C@H]1O[C@H](O[C@H]2[C@H](O)[C@@H](O)[C@@H](O[C@H]3[C@H](O)[C@@H](O)C(O)O[C@@H]3CO)O[C@@H]2CO)[C@H](O)[C@@H](O)[C@@H]1O[C@H]1O[C@H](C)[C@@H](N[C@H]2C=C(CO)[C@@H](O[C@H]3O[C@H](CO)[C@@H](O[C@H]4O[C@H](C)[C@@H](N[C@H]5C=C(CO)[C@@H](O)[C@H](O)[C@H]5O)[C@H](O)[C@H]4O)[C@H](O)[C@H]3O)[C@H](O)[C@H]2O)[C@H](O)[C@H]1O (stereo partly drawn) [Compound 12, D6-O-Isobutyryl-acarviostatin II02] | – | 85 ± 6 nM | 6.79 ± 0.06 µM | 5.48 ± 0.18 µM | – | –
CC(C)CC(=O)OC[C@H]1O[C@H](O[C@H]2[C@H](O)[C@@H](O)[C@@H](O[C@H]3[C@H](O)[C@@H](O)C(O)O[C@@H]3CO)O[C@@H]2CO)[C@H](O)[C@@H](O)[C@@H]1O[C@H]1O[C@H](C)[C@@H](N[C@H]2C=C(CO)[C@@H](O[C@H]3O[C@H](CO)[C@@H](O[C@H]4O[C@H](C)[C@@H](N[C@H]5C=C(CO)[C@@H](O)[C@H](O)[C@H]5O)[C@H](O)[C@H]4O)[C@H](O)[C@H]3O)[C@H](O)[C@H]2O)[C@H](O)[C@H]1O (stereo partly drawn) [Compound 13, D6-O-Isovaleryl-acarviostatin II02] | – | 92 ± 1 nM | 7.06 ± 0.09 µM | 1.56 ± 0.04 µM | – | –
CCC(=O)OC[C@H]1O[C@H](O[C@H]2[C@H](O)[C@@H](O)[C@@H](O[C@H]3[C@H](O)[C@@H](O)[C@@H](O[C@H]4[C@H](O)[C@@H](O)C(O)O[C@@H]4CO)O[C@@H]3CO)O[C@@H]2CO)[C@H](O)[C@@H](O)[C@@H]1O[C@H]1O[C@H](C)[C@@H](N[C@H]2C=C(CO)[C@@H](O[C@H]3O[C@H](CO)[C@@H](O[C@H]4O[C@H](C)[C@@H](N[C@H]5C=C(CO)[C@@H](O)[C@H](O)[C@H]5O)[C@H](O)[C@H]4O)[C@H](O)[C@H]3O)[C@H](O)[C@H]2O)[C@H](O)[C@H]1O (stereo partly drawn) [Compound 14, D6-O-Propionyl-acarviostatin II03] | – | – | 2.56 ± 0.12 µM | – | 35 ± 1 nM | 4.21 ± 0.03 µM
CCCC(=O)OC[C@H]1O[C@H](O[C@H]2[C@H](O)[C@@H](O)[C@@H](O[C@H]3[C@H](O)[C@@H](O)[C@@H](O[C@H]4[C@H](O)[C@@H](O)C(O)O[C@@H]4CO)O[C@@H]3CO)O[C@@H]2CO)[C@H](O)[C@@H](O)[C@@H]1O[C@H]1O[C@H](C)[C@@H](N[C@H]2C=C(CO)[C@@H](O[C@H]3O[C@H](CO)[C@@H](O[C@H]4O[C@H](C)[C@@H](N[C@H]5C=C(CO)[C@@H](O)[C@H](O)[C@H]5O)[C@H](O)[C@H]4O)[C@H](O)[C@H]3O)[C@H](O)[C@H]2O)[C@H](O)[C@H]1O (stereo partly drawn) [Compound 15, D6-O-Butyryl-acarviostatin II03] | – | – | 10.7 ± 2.6 µM | – | 59 ± 7 nM | 4.46 ± 0.14 µM
CCC(C)C(=O)OC[C@H]1O[C@H](O[C@H]2[C@H](O)[C@@H](O)[C@@H](O[C@H]3[C@H](O)[C@@H](O)[C@@H](O[C@H]4[C@H](O)[C@@H](O)C(O)O[C@@H]4CO)O[C@@H]3CO)O[C@@H]2CO)[C@H](O)[C@@H](O)[C@@H]1O[C@H]1O[C@H](C)[C@@H](N[C@H]2C=C(CO)[C@@H](O[C@H]3O[C@H](CO)[C@@H](O[C@H]4O[C@H](C)[C@@H](N[C@H]5C=C(CO)[C@@H](O)[C@H](O)[C@H]5O)[C@H](O)[C@H]4O)[C@H](O)[C@H]3O)[C@H](O)[C@H]2O)[C@H](O)[C@H]1O (stereo partly drawn) [Compound 16, D6-O-2-Methyl-butyryl-acarviostatin II03] | – | – | 7.28 ± 0.1 µM | – | 52 ± 3 nM | 1.34 ± 0.03 µM
C[C@H]1O[C@H](O[C@H]2[C@H](O)[C@@H](O)[C@@H](O[C@H]3[C@H](O)[C@@H](O)[C@@H](O[C@H]4[C@H](O)[C@@H](O)[C@@H](O[C@H]5[C@H](O)[C@@H](O)C(O)O[C@@H]5CO)O[C@@H]4CO)O[C@@H]3CO)O[C@@H]2CO)[C@H](O)[C@@H](O)[C@@H]1N[C@H]1C=C(CO)[C@@H](O)[C@H](O)[C@H]1O (stereo partly drawn) [Compound 17, acarviostatin I03] | – | 296 ± 7 nM | 11.1 ± 0.24 µM | 31.6 ± 4.13 µM | – | –
CCCC(=O)OC[C@H]1O[C@H](O[C@H]2[C@H](O)[C@@H](O)[C@@H](O[C@H]3[C@H](O)[C@@H](O)[C@@H](O[C@H]4[C@H](O)[C@@H](O)C(O)O[C@@H]4CO)O[C@@H]3CO)O[C@@H]2CO)[C@H](O)[C@@H](O)[C@@H]1O[C@H]1O[C@H](C)[C@@H](N[C@H]2C=C(CO)[C@@H](O)[C@H](O)[C@H]2O)[C@H](O)[C@H]1O (stereo partly drawn) [Compound 18, Bu-Aca I03] | – | 402 ± 8 nM | 3.8 ± 0.78 µM | 11.7 ± 2.52 µM | – | –
CC(O)CC(=O)OC[C@H]1O[C@H](O[C@H]2[C@H](O)[C@@H](O)[C@@H](O[C@H]3[C@H](O)[C@@H](O)[C@@H](O[C@H]4[C@H](O)[C@@H](O)C(O)O[C@@H]4CO)O[C@@H]3CO)O[C@@H]2CO)[C@H](O)[C@@H](O)[C@@H]1O[C@H]1O[C@H](C)[C@@H](N[C@H]2C=C(CO)[C@@H](O[C@H]3O[C@H](CO)[C@@H](O[C@H]4O[C@H](C)[C@@H](N[C@H]5C=C(CO)[C@@H](O)[C@H](O)[C@H]5O)[C@H](O)[C@H]4O)[C@H](O)[C@H]3O)[C@H](O)[C@H]2O)[C@H](O)[C@H]1O (stereo partly drawn) [Compound 19, Hbu-Aca II03] | – | – | 9.67 ± 0.1 µM | – | 61 ± 5 nM | 1 ± 0.12 µM
CC(C)CC(=O)OC[C@H]1O[C@H](O[C@H]2[C@H](O)[C@@H](O)[C@@H](O[C@H]3[C@H](O)[C@@H](O)[C@@H](O[C@H]4[C@H](O)[C@@H](O)C(O)O[C@@H]4CO)O[C@@H]3CO)O[C@@H]2CO)[C@H](O)[C@@H](O)[C@@H]1O[C@H]1O[C@H](C)[C@@H](N[C@H]2C=C(CO)[C@@H](O[C@H]3O[C@H](CO)[C@@H](O[C@H]4O[C@H](C)[C@@H](N[C@H]5C=C(CO)[C@@H](O)[C@H](O)[C@H]5O)[C@H](O)[C@H]4O)[C@H](O)[C@H]3O)[C@H](O)[C@H]2O)[C@H](O)[C@H]1O (stereo partly drawn) [Compound 20, isoVa-Aca II03] | – | – | 9.93 ± 0.5 µM | – | 80 ± 3 nM | 1.43 ± 0.08 µM
C[C@H]1O[C@H](O[C@H]2[C@H](O)[C@@H](O)[C@@H](O[C@H]3[C@H](O)[C@@H](O)C(O)O[C@@H]3CO)O[C@@H]2CO)[C@H](O)[C@@H](O)[C@@H]1N[C@H]1C=C(CO)[C@@H](O)[C@H](O)[C@H]1O (stereo partly drawn) [acarbose, reference compound] | – | – | 2.34 ± 0.23 µM | 191 ± 15.2 µM | – | –
